Measured values reported in PubChem BioAssay AID2060907 (Molecular Pharmacology Branch, DTP, NCI, 2025).

System: 388556-164-R-J1-PDC complex spheroid viability
Experiment: Anticancer human tumor 388556-164-R-J1-PDC patient-derived colon adenocarcinoma cell line growth inhibition [RAS]
Settings: for IC50: curve of first compound; for viability, T/C: stronger effect = lower value
How it was run: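 Multi-cell-type spheroids: tumor cells plus HUVEC endothelial cells and mesenchymal stem cells. RAS-pathway inhibitors were combined with targeted agents, each dosed in half-log steps down from clinical Cmax, or from 10 microM when Cmax was unknown.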
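Also: spheroids exposed to compound for 7 days before readout.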
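For viability, T/C in this document: 100% = DMSO vehicle control luminescence.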

Q: What does the source list for `CCc1c2c(nc3ccc(O)cc13)-c1cc3c(c(=O)n1C2)COC(=O)[C@]3(O)CC` + CCn1c(-c2cccnc2C(C)OC)c2c3cc(ccc31)N1CCOC(CC(NC(=O)C(C(C)C)N(C)C(=O)C3(F)CCN(C(=O)C#CC(C)(C)N(C)C)CC3)C(=O)N3CCCC(N3)C(=O)OCC(C)(C)C2)C1?
A: IC50 (second compound 0.000949 µM): 0.068 µM; IC50 (second compound 0.003 µM): 0.0745 µM; IC50 (second compound 0.00949 µM): 0.072 µM; IC50 (second compound 0.03 µM): 0.0861 µM; IC50 (second compound 0.0949 µM): 0.0695 µM; IC50 (second compound 0.3 µM): 0.0467 µM; viability, T/C (second compound 0.000949 µM, first compound 0.000949 µM): 107%; viability, T/C (second compound 0.000949 µM, first compound 0.003 µM): 98.7%; viability, T/C (second compound 0.000949 µM, first compound 0.00949 µM): 87.1%; viability, T/C (second compound 0.000949 µM, first compound 0.03 µM): 62.1%; viability, T/C (second compound 0.000949 µM, first compound 0.0949 µM): 45.8%; viability, T/C (second compound 0.000949 µM, first compound 0.3 µM): 32.1%; viability, T/C (second compound 0.003 µM, first compound 0.000949 µM): 111%; viability, T/C (second compound 0.003 µM, first compound 0.003 µM): 88.7%; viability, T/C (second compound 0.003 µM, first compound 0.00949 µM): 83.6%; viability, T/C (second compound 0.003 µM, first compound 0.03 µM): 61.4%; viability, T/C (second compound 0.003 µM, first compound 0.0949 µM): 47.3%; viability, T/C (second compound 0.003 µM, first compound 0.3 µM): 29.1%; viability, T/C (second compound 0.00949 µM, first compound 0.000949 µM): 104%; viability, T/C (second compound 0.00949 µM, first compound 0.003 µM): 96.5%; viability, T/C (second compound 0.00949 µM, first compound 0.00949 µM): 83.8%; viability, T/C (second compound 0.00949 µM, first compound 0.03 µM): 63.6%; viability, T/C (second compound 0.00949 µM, first compound 0.0949 µM): 46.2%; viability, T/C (second compound 0.00949 µM, first compound 0.3 µM): 31.1%; viability, T/C (second compound 0.03 µM, first compound 0.000949 µM): 106%; viability, T/C (second compound 0.03 µM, first compound 0.003 µM): 96.8%; viability, T/C (second compound 0.03 µM, first compound 0.00949 µM): 78.2%; viability, T/C (second compound 0.03 µM, first compound 0.03 µM): 65.5%; viability, T/C (second compound 0.03 µM, first compound 0.0949 µM): 52.7%; viability, T/C (second compound 0.03 µM, first compound 0.3 µM): 27%; viability, T/C (second compound 0.0949 µM, first compound 0.000949 µM): 93.3%; viability, T/C (second compound 0.0949 µM, first compound 0.003 µM): 90%; viability, T/C (second compound 0.0949 µM, first compound 0.00949 µM): 80.4%; viability, T/C (second compound 0.0949 µM, first compound 0.03 µM): 63.7%; viability, T/C (second compound 0.0949 µM, first compound 0.0949 µM): 45.3%; viability, T/C (second compound 0.0949 µM, first compound 0.3 µM): 25.5%; viability, T/C (second compound 0.3 µM, first compound 0.000949 µM): 92.4%; viability, T/C (second compound 0.3 µM, first compound 0.003 µM): 89.7%; viability, T/C (second compound 0.3 µM, first compound 0.00949 µM): 72.2%; viability, T/C (second compound 0.3 µM, first compound 0.03 µM): 57.3%; viability, T/C (second compound 0.3 µM, first compound 0.0949 µM): 39.1%; viability, T/C (second compound 0.3 µM, first compound 0.3 µM): 21.4%
